Biological target: T1, human PPARδ (Homo sapiens, UniProt Q03181)
T1 construct: expressed in transfected cells; host or cells: HEK-293 cells (transient co-transfection)
T1 sequence (Q03181 211-439 limits assumed): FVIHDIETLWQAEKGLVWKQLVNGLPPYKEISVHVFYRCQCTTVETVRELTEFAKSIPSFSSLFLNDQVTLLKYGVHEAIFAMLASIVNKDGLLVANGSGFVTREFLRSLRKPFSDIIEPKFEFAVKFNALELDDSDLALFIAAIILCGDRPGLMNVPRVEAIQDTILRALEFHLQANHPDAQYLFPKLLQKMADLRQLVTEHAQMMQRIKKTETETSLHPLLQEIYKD
Assay: Transfection determination: pM-hPPARδ/GAL4 chimeric receptor luciferase reporter, transient transfection in HEK-293 cells
Format: cell-based
Settings: 1 μM, luciferase read 24 hours after administration, GW501516 positive control
Description: Transfection Determination
The functional titration of the transient transfection of the compounds in HEK-293 cells was screened to determine their ability to activate PPAR subtype. Chimeric acceptor system was built in advance to compare relative transcription activity of acceptor subtype to same target gene and prevent the complexness of endogenous acceptor activation due to the explanation of results. Ligand binding domain of human PPARδ was fused to yeast transcription factor GAL4DNA binding domain, and then linked to expression carrier pM of mammal to build pM-hPPARδ/GAL4 plasmids. GAL4DNA binding region was connected to pB4-tk-luc to pB4-RES-tk-luc (a report gene of firefly luciferin enzyme containing 5 templates of GAL4DNA binding site). pRL-CMV-Rluc was used as internal standard to correct transfection efficiency and endogenous influence and reduce experimental error.
HEK-293 cells were grown in 48 wells plate, the density of cells was 2-4×10^4/well. The culture medium was 1640 of 10% defatted FCS free of phenol red and antibiotics. After 48 hours, the culture medium was changed as 1640 of 5% defatted FCS free of phenol red and antibiotics, and then pM-hPPARδ/GAL4, pB4-RES-tk-luc and pRL-CMV-Rluc plasmids were co-transfected in HEK-293 cells. The drug was administered after 24 hours, and the luminous intensity of luciferin enzyme was determined 24 hours after administration. The control was 0.2% DMSO.
For Cc1cc(SCc2ccnc(-c3ccc(C(F)(F)F)cc3)n2)ccc1OCC(=O)O [example 7, {2-methyl-4-[2-(4-trifluoromethylphenyl)-pyrimidin-4-yl-methylthio]phenoxy}-acetic acid], the “Activation ability % (Activation of part of compounds for PPARδ)” value was 94.86%.
In the case of Cc1cc(SCc2ccnc(-c3ccc(F)cc3)n2)ccc1OC(C)(C)C(=O)O [example 18, 2-methyl-2-{2-methyl-4-[2-(4-fluorophenyl)-pyrimidin-4-yl-methylthio]-phenoxy}-propionic acid], the “Activation ability % (Activation of part of compounds for PPARδ)” value is reported as 103.26%.
For “2-methyl-2-{2-methyl-4-[2-(4-trichloromethylphenyl)-pyrimidin-4-yl-methylthio]-phenoxy}-propionic acid [example 20]”, the “Activation ability % (Activation of part of compounds for PPARδ)” value was 144.86%.
With Cc1cc(SCc2ccnc(-c3ccc(F)cc3)n2)ccc1OCC(=O)O [example 8, {2-methyl-4-[2-(4-fluorophenyl)-pyrimidin-4-yl-methylthio]-phenoxy}-acetic acid] the “Activation ability % (Activation of part of compounds for PPARδ)” value was 135.46%.
With Cc1cc(SCc2ccnc(-c3ccc(Cl)cc3)n2)ccc1OCC(=O)O [example 9, {2-methyl-4-[2-(4-chlorophenyl)-pyrimidin-4-yl-methylthio]-phenoxy}-acetic acid] the “Activation ability % (Activation of part of compounds for PPARδ)” value was 88.35%.
For Cc1cc(SCc2ccnc(-c3ccc(Br)cc3)n2)ccc1OCC(=O)O [example 10, {2-methyl-4-[2-(4-bromophenyl)-pyrimidin-4-yl-methylthio]-phenoxy}-acetic acid], the “Activation ability % (Activation of part of compounds for PPARδ)” value was 108.55%.
With Cc1cc(SCc2ccnc(-c3ccc(Cl)cc3)n2)ccc1OC(C)(C)C(=O)O [example 17, 2-methyl-2-{2-methyl-4-[2-(4-chlorophenyl)-pyrimidin-4-yl-methylthio]-phenoxy}-propionic acid] the “Activation ability % (Activation of part of compounds for PPARδ)” value was 119.51%.

Tested on: not given
Assay: not given
Settings: not given
O=C(O)CCc1ccc(OCc2ccnc(-c3ccc(Cl)cc3)n2)cc1 [Example 2, 3-{4-[2-(4-chlorophenyl)-pyrimidin-4-yl-methoxy]-phenyl}-propionic acid] gave a melting point of 168.3 to 169.4 °C.
Molecule Cc1cc(SCc2ccnc(-c3ccc(C(F)(F)F)cc3)n2)ccc1OCC(=O)O [example 7, {2-methyl-4-[2-(4-trifluoromethylphenyl)-pyrimidin-4-yl-methylthio]phenoxy}-acetic acid] has a melting point of 159.3 to 160.2 °C.
In the case of Cc1cc(SCc2ccnc(-c3ccc(F)cc3)n2)ccc1OC(C)(C)C(=O)O [example 18, 2-methyl-2-{2-methyl-4-[2-(4-fluorophenyl)-pyrimidin-4-yl-methylthio]-phenoxy}-propionic acid], the melting point is reported as 139.5 to 140.4 °C.
With O=C(O)CCc1ccc(OCc2ccnc(-c3ccc(Br)cc3)n2)cc1 [Example 3, 3-{4-[2-(4-bromophenyl)-pyrimidin-4-yl-methoxy]-phenyl}-propionic acid] the melting point was 168 to 168.8 °C.
O=C(O)CCc1ccc(OCc2ccnc(-c3ccc(F)cc3)n2)cc1 [Example 1, 3-{4-[2-(4-fluorophenyl)-pyrimidin-4-yl-methoxy]-phenyl}-propionic acid] showed a melting point of 167.2 to 168 °C.
O=C(O)CCc1ccc(OCc2ccnc(-c3ccc(C(F)(F)F)cc3)n2)cc1 [Example 4, 3-{4-[2-(4-trifluoromethylphenyl)-pyrimidin-4-yl-methoxy]-phenyl}-propionic acid] showed a melting point of 146.6 to 147.5 °C.
O=C(O)CCc1ccc(OCc2ccnc(-c3c(F)cc(F)cc3F)n2)cc1 [Example 5, 3-{4-[2-(2,4,6-trifluorophenyl)-pyrimidin-4-yl-methoxy]-phenyl}-propionic acid] showed a melting point of 143.8 to 144.1 °C.

Reference: patent US8759355B2, “Aryl pyrimidine derivatives, preparation methods and pharmaceutical uses thereof” (Institute of Pharmacology and Toxicology Academy of …, priority 2008, dated 2014)
